{
  "source": "ChEMBL document CHEMBL1135338",
  "about": "“Protease inhibitors: synthesis of matrix metalloproteinase and bacterial collagenase inhibitors incorporating 5-amino-2-mercapto-1,3,4-thiadiazole zinc binding functions” (Bioorg Med Chem Lett, 2002)",
  "data": [
    {"biological_target": "Matrix metalloproteinase-9 (Homo sapiens, UniProt P14780)", "sequence (P14780 whole entry)": "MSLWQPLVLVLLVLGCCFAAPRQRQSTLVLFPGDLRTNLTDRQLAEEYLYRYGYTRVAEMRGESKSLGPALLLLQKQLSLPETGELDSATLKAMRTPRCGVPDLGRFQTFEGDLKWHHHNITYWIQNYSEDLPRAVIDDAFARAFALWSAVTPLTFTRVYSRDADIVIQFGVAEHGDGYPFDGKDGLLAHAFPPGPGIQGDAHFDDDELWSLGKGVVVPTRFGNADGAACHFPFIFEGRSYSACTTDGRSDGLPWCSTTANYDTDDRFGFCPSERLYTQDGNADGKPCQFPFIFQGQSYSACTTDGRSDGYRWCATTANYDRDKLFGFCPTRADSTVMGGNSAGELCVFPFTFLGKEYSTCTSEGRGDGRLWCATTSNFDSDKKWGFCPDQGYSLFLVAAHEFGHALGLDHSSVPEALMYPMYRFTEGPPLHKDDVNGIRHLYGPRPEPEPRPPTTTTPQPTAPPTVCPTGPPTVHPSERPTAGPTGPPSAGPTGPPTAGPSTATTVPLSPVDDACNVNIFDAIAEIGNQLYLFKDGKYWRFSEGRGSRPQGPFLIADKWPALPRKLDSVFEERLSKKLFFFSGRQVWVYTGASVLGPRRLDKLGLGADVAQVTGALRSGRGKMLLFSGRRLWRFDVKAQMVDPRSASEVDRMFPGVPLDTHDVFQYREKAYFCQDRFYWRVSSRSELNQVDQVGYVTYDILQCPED", "assay": "Inhibition of human matrix metalloprotease-9", "units": {"Ki": "µM"}, "values": [
      {"smiles": "C[C@H](NC(=O)[C@H](Cc1ccccc1)NS(=O)(=O)c1ccc(F)cc1)C(=O)Nc1n[nH]c(=S)s1", "Ki": 14},
      {"smiles": "C[C@H](NC(=O)[C@H](Cc1ccccc1)NC(=O)NS(=O)(=O)c1ccc(F)cc1)C(=O)Nc1n[nH]c(=S)s1", "Ki": 0.3},
      {"smiles": "C[C@H](NC(=O)[C@H](Cc1ccccc1)NS(=O)(=O)Cc1ccccc1)C(=O)Nc1n[nH]c(=S)s1", "Ki": 16},
      {"smiles": "CC(=O)Nc1ccc(S(=O)(=O)N[C@@H](Cc2ccccc2)C(=O)N[C@@H](C)C(=O)Nc2n[nH]c(=S)s2)cc1", "Ki": 10},
      {"smiles": "C[C@H](NC(=O)[C@H](Cc1ccccc1)NS(=O)(=O)c1ccc2ccccc2c1)C(=O)Nc1n[nH]c(=S)s1", "Ki": 53},
      {"smiles": "C[C@H](NC(=O)[C@H](Cc1ccccc1)NS(=O)(=O)c1cc(Cl)ccc1Cl)C(=O)Nc1n[nH]c(=S)s1", "Ki": 17},
      {"smiles": "C[C@H](NC(=O)[C@H](Cc1ccccc1)NS(=O)(=O)c1ccc(I)cc1)C(=O)Nc1n[nH]c(=S)s1", "Ki": 18},
      {"smiles": "C[C@H](NC(=O)[C@H](Cc1ccccc1)NS(=O)(=O)c1cccc2cccnc12)C(=O)Nc1n[nH]c(=S)s1", "Ki": 45},
      {"smiles": "C[C@H](NC(=O)[C@H](Cc1ccccc1)NS(=O)(=O)c1cccs1)C(=O)Nc1n[nH]c(=S)s1", "Ki": 10},
      {"smiles": "C[C@H](NC(=O)[C@H](Cc1ccccc1)NS(=O)(=O)c1ccccc1)C(=O)Nc1n[nH]c(=S)s1", "Ki": 15},
      {"smiles": "C[C@H](NC(=O)[C@H](Cc1ccccc1)NS(=O)(=O)c1ccccc1[N+](=O)[O-])C(=O)Nc1n[nH]c(=S)s1", "Ki": 14},
      {"smiles": "COc1ccc(S(=O)(=O)N[C@@H](Cc2ccccc2)C(=O)N[C@@H](C)C(=O)Nc2n[nH]c(=S)s2)cc1", "Ki": 21},
      {"smiles": "C[C@H](NC(=O)[C@H](Cc1ccccc1)NS(=O)(=O)c1ccc(Cl)cc1)C(=O)Nc1n[nH]c(=S)s1", "Ki": 15},
      {"smiles": "C[C@H](NC(=O)[C@H](Cc1ccccc1)NS(=O)(=O)c1ccc([N+](=O)[O-])cc1)C(=O)Nc1n[nH]c(=S)s1", "Ki": 18},
      {"smiles": "C[C@H](NC(=O)[C@H](Cc1ccccc1)NC(=O)NS(=O)(=O)c1ccc(Cl)cc1)C(=O)Nc1n[nH]c(=S)s1", "Ki": 0.4},
      {"smiles": "C[C@H](NC(=O)[C@H](Cc1ccccc1)NS(=O)(=O)c1cccc(C(F)(F)F)c1)C(=O)Nc1n[nH]c(=S)s1", "Ki": 5}
    ]},
    {"biological_target": "T1, Interstitial collagenase (Homo sapiens, UniProt P03956)", "T1 sequence (P03956 whole entry)": "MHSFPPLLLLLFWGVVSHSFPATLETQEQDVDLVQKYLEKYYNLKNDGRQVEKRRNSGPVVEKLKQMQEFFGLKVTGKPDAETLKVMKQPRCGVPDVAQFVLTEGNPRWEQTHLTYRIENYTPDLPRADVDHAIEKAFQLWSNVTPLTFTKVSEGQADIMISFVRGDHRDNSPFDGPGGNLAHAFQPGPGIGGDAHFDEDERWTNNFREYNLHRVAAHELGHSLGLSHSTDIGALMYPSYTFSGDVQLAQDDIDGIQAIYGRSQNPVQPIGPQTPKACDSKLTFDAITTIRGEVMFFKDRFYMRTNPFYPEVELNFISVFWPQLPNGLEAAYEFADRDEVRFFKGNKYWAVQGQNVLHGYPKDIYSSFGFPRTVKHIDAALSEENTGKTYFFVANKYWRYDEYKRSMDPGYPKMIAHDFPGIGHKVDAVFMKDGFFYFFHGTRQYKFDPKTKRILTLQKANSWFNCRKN", "assay": "Inhibition of human matrix metalloprotease-1", "units": {"Ki": "µM"}, "values": [
      {"smiles": "C[C@H](NC(=O)[C@H](Cc1ccccc1)NS(=O)(=O)c1ccc(F)cc1)C(=O)Nc1n[nH]c(=S)s1", "Ki": 19},
      {"smiles": "C[C@H](NC(=O)[C@H](Cc1ccccc1)NC(=O)NS(=O)(=O)c1ccc(F)cc1)C(=O)Nc1n[nH]c(=S)s1", "Ki": 12},
      {"smiles": "C[C@H](NC(=O)[C@H](Cc1ccccc1)NS(=O)(=O)Cc1ccccc1)C(=O)Nc1n[nH]c(=S)s1", "Ki": 24},
      {"smiles": "CC(=O)Nc1ccc(S(=O)(=O)N[C@@H](Cc2ccccc2)C(=O)N[C@@H](C)C(=O)Nc2n[nH]c(=S)s2)cc1", "Ki": 14},
      {"smiles": "C[C@H](NC(=O)[C@H](Cc1ccccc1)NS(=O)(=O)c1ccc2ccccc2c1)C(=O)Nc1n[nH]c(=S)s1", "Ki": 72},
      {"smiles": "C[C@H](NC(=O)[C@H](Cc1ccccc1)NS(=O)(=O)c1cc(Cl)ccc1Cl)C(=O)Nc1n[nH]c(=S)s1", "Ki": 19},
      {"smiles": "C[C@H](NC(=O)[C@H](Cc1ccccc1)NS(=O)(=O)c1ccc(I)cc1)C(=O)Nc1n[nH]c(=S)s1", "Ki": 21},
      {"smiles": "C[C@H](NC(=O)[C@H](Cc1ccccc1)NS(=O)(=O)c1cccc2cccnc12)C(=O)Nc1n[nH]c(=S)s1", "Ki": 74},
      {"smiles": "C[C@H](NC(=O)[C@H](Cc1ccccc1)NS(=O)(=O)c1cccs1)C(=O)Nc1n[nH]c(=S)s1", "Ki": 14},
      {"smiles": "C[C@H](NC(=O)[C@H](Cc1ccccc1)NS(=O)(=O)c1ccccc1)C(=O)Nc1n[nH]c(=S)s1", "Ki": 22},
      {"smiles": "C[C@H](NC(=O)[C@H](Cc1ccccc1)NS(=O)(=O)c1ccccc1[N+](=O)[O-])C(=O)Nc1n[nH]c(=S)s1", "Ki": 29},
      {"smiles": "COc1ccc(S(=O)(=O)N[C@@H](Cc2ccccc2)C(=O)N[C@@H](C)C(=O)Nc2n[nH]c(=S)s2)cc1", "Ki": 28},
      {"smiles": "C[C@H](NC(=O)[C@H](Cc1ccccc1)NS(=O)(=O)c1ccc(Cl)cc1)C(=O)Nc1n[nH]c(=S)s1", "Ki": 20},
      {"smiles": "C[C@H](NC(=O)[C@H](Cc1ccccc1)NS(=O)(=O)c1ccc([N+](=O)[O-])cc1)C(=O)Nc1n[nH]c(=S)s1", "Ki": 15},
      {"smiles": "C[C@H](NC(=O)[C@H](Cc1ccccc1)NC(=O)NS(=O)(=O)c1ccc(Cl)cc1)C(=O)Nc1n[nH]c(=S)s1", "Ki": 10},
      {"smiles": "C[C@H](NC(=O)[C@H](Cc1ccccc1)NS(=O)(=O)c1cccc(C(F)(F)F)c1)C(=O)Nc1n[nH]c(=S)s1", "Ki": 13}
    ]},
    {"biological_target": "72 kDa type IV collagenase (Homo sapiens, UniProt P08253)", "sequence (P08253 whole entry)": "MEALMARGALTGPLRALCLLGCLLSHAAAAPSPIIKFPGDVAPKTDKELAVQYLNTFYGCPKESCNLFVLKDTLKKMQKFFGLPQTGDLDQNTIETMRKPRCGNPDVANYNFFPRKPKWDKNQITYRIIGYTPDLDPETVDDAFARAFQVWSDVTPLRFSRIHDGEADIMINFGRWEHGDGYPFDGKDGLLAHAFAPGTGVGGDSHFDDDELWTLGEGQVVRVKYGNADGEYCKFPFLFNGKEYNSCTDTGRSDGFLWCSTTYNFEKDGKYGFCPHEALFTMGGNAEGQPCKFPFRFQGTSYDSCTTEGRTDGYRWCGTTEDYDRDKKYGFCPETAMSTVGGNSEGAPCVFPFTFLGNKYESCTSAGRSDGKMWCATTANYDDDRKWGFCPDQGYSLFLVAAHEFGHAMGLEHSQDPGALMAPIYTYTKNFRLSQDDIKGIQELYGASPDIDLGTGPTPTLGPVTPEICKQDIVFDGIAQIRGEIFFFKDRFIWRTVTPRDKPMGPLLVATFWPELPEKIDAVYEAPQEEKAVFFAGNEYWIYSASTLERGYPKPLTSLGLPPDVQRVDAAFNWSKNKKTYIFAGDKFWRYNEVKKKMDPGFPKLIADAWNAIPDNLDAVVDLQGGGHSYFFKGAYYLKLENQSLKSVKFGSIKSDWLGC", "assay": "Inhibition of human matrix metalloprotease-2", "units": {"Ki": "µM"}, "values": [
      {"smiles": "C[C@H](NC(=O)[C@H](Cc1ccccc1)NS(=O)(=O)c1ccc(F)cc1)C(=O)Nc1n[nH]c(=S)s1", "Ki": 17},
      {"smiles": "C[C@H](NC(=O)[C@H](Cc1ccccc1)NC(=O)NS(=O)(=O)c1ccc(F)cc1)C(=O)Nc1n[nH]c(=S)s1", "Ki": 2},
      {"smiles": "C[C@H](NC(=O)[C@H](Cc1ccccc1)NS(=O)(=O)Cc1ccccc1)C(=O)Nc1n[nH]c(=S)s1", "Ki": 16},
      {"smiles": "CC(=O)Nc1ccc(S(=O)(=O)N[C@@H](Cc2ccccc2)C(=O)N[C@@H](C)C(=O)Nc2n[nH]c(=S)s2)cc1", "Ki": 8},
      {"smiles": "C[C@H](NC(=O)[C@H](Cc1ccccc1)NS(=O)(=O)c1ccc2ccccc2c1)C(=O)Nc1n[nH]c(=S)s1", "Ki": 33},
      {"smiles": "C[C@H](NC(=O)[C@H](Cc1ccccc1)NS(=O)(=O)c1cc(Cl)ccc1Cl)C(=O)Nc1n[nH]c(=S)s1", "Ki": 10},
      {"smiles": "C[C@H](NC(=O)[C@H](Cc1ccccc1)NS(=O)(=O)c1ccc(I)cc1)C(=O)Nc1n[nH]c(=S)s1", "Ki": 17},
      {"smiles": "C[C@H](NC(=O)[C@H](Cc1ccccc1)NS(=O)(=O)c1cccc2cccnc12)C(=O)Nc1n[nH]c(=S)s1", "Ki": 41},
      {"smiles": "C[C@H](NC(=O)[C@H](Cc1ccccc1)NS(=O)(=O)c1cccs1)C(=O)Nc1n[nH]c(=S)s1", "Ki": 13},
      {"smiles": "C[C@H](NC(=O)[C@H](Cc1ccccc1)NS(=O)(=O)c1ccccc1)C(=O)Nc1n[nH]c(=S)s1", "Ki": 18},
      {"smiles": "C[C@H](NC(=O)[C@H](Cc1ccccc1)NS(=O)(=O)c1ccccc1[N+](=O)[O-])C(=O)Nc1n[nH]c(=S)s1", "Ki": 15},
      {"smiles": "COc1ccc(S(=O)(=O)N[C@@H](Cc2ccccc2)C(=O)N[C@@H](C)C(=O)Nc2n[nH]c(=S)s2)cc1", "Ki": 18},
      {"smiles": "C[C@H](NC(=O)[C@H](Cc1ccccc1)NS(=O)(=O)c1ccc(Cl)cc1)C(=O)Nc1n[nH]c(=S)s1", "Ki": 16},
      {"smiles": "C[C@H](NC(=O)[C@H](Cc1ccccc1)NS(=O)(=O)c1ccc([N+](=O)[O-])cc1)C(=O)Nc1n[nH]c(=S)s1", "Ki": 12},
      {"smiles": "C[C@H](NC(=O)[C@H](Cc1ccccc1)NC(=O)NS(=O)(=O)c1ccc(Cl)cc1)C(=O)Nc1n[nH]c(=S)s1", "Ki": 4},
      {"smiles": "C[C@H](NC(=O)[C@H](Cc1ccccc1)NS(=O)(=O)c1cccc(C(F)(F)F)c1)C(=O)Nc1n[nH]c(=S)s1", "Ki": 11}
    ]},
    {"biological_target": "Neutrophil collagenase (Homo sapiens, UniProt P22894)", "sequence (P22894 whole entry)": "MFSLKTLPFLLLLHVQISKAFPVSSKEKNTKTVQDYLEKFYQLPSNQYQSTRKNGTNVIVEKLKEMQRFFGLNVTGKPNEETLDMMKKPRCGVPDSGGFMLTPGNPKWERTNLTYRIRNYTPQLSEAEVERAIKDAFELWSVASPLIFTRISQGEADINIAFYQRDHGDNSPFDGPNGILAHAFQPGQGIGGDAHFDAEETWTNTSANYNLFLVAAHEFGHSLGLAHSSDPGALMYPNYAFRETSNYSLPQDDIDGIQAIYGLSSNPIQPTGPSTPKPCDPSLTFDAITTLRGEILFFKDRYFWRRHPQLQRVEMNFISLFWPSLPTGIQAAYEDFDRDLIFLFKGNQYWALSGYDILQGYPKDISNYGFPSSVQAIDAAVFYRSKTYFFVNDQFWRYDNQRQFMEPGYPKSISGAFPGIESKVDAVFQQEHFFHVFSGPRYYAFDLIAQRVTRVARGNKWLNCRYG", "assay": "Inhibition of human matrix metalloprotease-8", "units": {"Ki": "µM"}, "values": [
      {"smiles": "C[C@H](NC(=O)[C@H](Cc1ccccc1)NC(=O)NS(=O)(=O)c1ccc(F)cc1)C(=O)Nc1n[nH]c(=S)s1", "Ki": 0.1},
      {"smiles": "C[C@H](NC(=O)[C@H](Cc1ccccc1)NS(=O)(=O)c1ccc2ccccc2c1)C(=O)Nc1n[nH]c(=S)s1", "Ki": 45},
      {"smiles": "C[C@H](NC(=O)[C@H](Cc1ccccc1)NS(=O)(=O)c1cc(Cl)ccc1Cl)C(=O)Nc1n[nH]c(=S)s1", "Ki": 9},
      {"smiles": "C[C@H](NC(=O)[C@H](Cc1ccccc1)NS(=O)(=O)c1cccc2cccnc12)C(=O)Nc1n[nH]c(=S)s1", "Ki": 39},
      {"smiles": "C[C@H](NC(=O)[C@H](Cc1ccccc1)NS(=O)(=O)c1ccccc1)C(=O)Nc1n[nH]c(=S)s1", "Ki": 24},
      {"smiles": "C[C@H](NC(=O)[C@H](Cc1ccccc1)NS(=O)(=O)c1ccccc1[N+](=O)[O-])C(=O)Nc1n[nH]c(=S)s1", "Ki": 17},
      {"smiles": "COc1ccc(S(=O)(=O)N[C@@H](Cc2ccccc2)C(=O)N[C@@H](C)C(=O)Nc2n[nH]c(=S)s2)cc1", "Ki": 20},
      {"smiles": "C[C@H](NC(=O)[C@H](Cc1ccccc1)NS(=O)(=O)c1ccc([N+](=O)[O-])cc1)C(=O)Nc1n[nH]c(=S)s1", "Ki": 10},
      {"smiles": "C[C@H](NC(=O)[C@H](Cc1ccccc1)NC(=O)NS(=O)(=O)c1ccc(Cl)cc1)C(=O)Nc1n[nH]c(=S)s1", "Ki": 0.2}
    ]}
  ]
}
